These results are taken from patent US9149525B2, “Delivery of corticosteroids through iontophoresis” (EyeGate Pharmaceuticals, Inc., priority 2008, dated 2015).

For data set [1] the following is noted: rabbit, in vivo.
Data set [2] concerns concanavalin A-induced dry eye. Description: Concanavalin A-induced dry eye in rabbits: tear flow and fluorescein staining. In kind it is in vivo, white New Zealand rabbits. The following applies: single 15 mA·min iontophoretic dose, 40 mg/mL, on Day 2. Here is the method:
300 μg of Concanavalin A (Sigma) in […] or phosphate-buffered saline (PBS) or PBS alone were injected into the lacrimal glands of white New Zealand rabbits to induce inflammation leading to dry eye symptoms, which is a well-established model of dry eye syndrome.
The animals were assigned to the following treatment groups:
Animals were observed daily following Con A injection for signs of ocular inflammation. Tear flow was measured using Schirmer strips in all groups on Days 0, 1, 2, 4, 7, and 8 after Con A injection (FIG. 6). Signs of ocular surface damage were assessed on Days 0, 2, 4, and 8 using fluorescein staining and slit-lamp microscopy (FIGS. 7 and 8).

Data set [3] has as its system transforming growth factor beta-1 (TGF-β1). Description: Cytokine ELISA in lacrimal gland and corneal extracts, TGF-β1. In kind it is in vivo, rabbit. The following applies: Day 4 or Day 8. Here is the method:
(§1) Animals were euthanized on Day 4 or Day 8 following Con A injection. Upon sacrifice, the cornea and lacrimal gland were removed and snap frozen in liquid nitrogen followed by storage at −80° C. All samples were homogenized by hand in a ground-glass homogenizer in 0.5 mL of PBS+10 mM EDTA. Interleukin-1-beta (IL-1β), FIG. 9, and transforming growth factor beta-1 (TGF-β1), FIG. 10, were measured in lacrimal gland and conical extracts using human IL-1β or TGF-β1 ELISA kit (R&D Systems DuoSet development system) according to manufacturer's instructions. Results were normalized for total protein concentration measured in the protein assay. Due to the high homology between rabbit and human IL-1β and TGF-β1, human kits are appropriate for detecting the rabbit cytokine.

For data set [4] the following is noted: for Dex AUC0-6h / Dex AUC0-24h: iontophoresis, analyte dexamethasone; for clearance of dexamethasone and DEX phosphate from plasma and ocular tissues: within 48 hours after iontophoretic administration.
For data set [5] the following is noted: cited from earlier work.
A short description of data set [6]: Cathodal trans-scleral iontophoresis in side-by-side diffusion cells. In kind it is in vitro ADME. The following applies: 0.5, 1 and 2 mA; after one hour; donor 0.4% w/v in water; rabbit sclera. Here is the method: (§2) All transscleral iontophoresis studies were performed in side-by-side diffusion cells (transport area 0.2 cm^2, volume 4 mL) with excised rabbit sclera. The tissue was freed from is the conjunctival extraocular muscles and retina. The sclera was clamped between the two half-cells, with the conjunctival side facing the drug solution. Pt or Ag/AgCl electrodes were used to deliver the constant current, which was provided by a power supply. Each experiment was performed in at least quadruplicate. Appropriate passive, no-current controls were performed.
(§3) The receptor solution was again phosphate-buffered saline at pH 7.4. A limited number of experiments were also carried out, in this instance, using sheep sclera. […] Samples of the receptor phase were assayed for dexamethasone by HPLC.

A short description of data set [7]: Cathodal trans-scleral iontophoresis in side-by-side diffusion cells, sheep sclera. Particulars: limited number of experiments. Format: in vitro ADME. Here is the method: as §2, §3
Data set [8] concerns interleukin-1beta (IL-1β). The data set can be described thus: Cytokine ELISA in lacrimal gland and corneal extracts, IL-1β. Format: in vivo, rabbit. The following applies: Day 4 or Day 8. Here is the method: as §1
On the technique in general: In an ELISA, binding on a coated surface is turned into a signal by an enzyme label.

For data set [9] the following is noted: administered systemically; cited from earlier work.
The nature of data set [10]: In vitro iontophoretic delivery with sodium citrate buffer. Format: in vitro ADME. Here is the method:
In vitro testing was performed at ±3 m A using a 10 mg/mL solution in 100 mM sodium citrate at pH ˜5.66. Approximately 1% transferred to receptor using cathodic delivery.
In vitro testing was performed using four different concentrations of sodium citrate buffer to examine the effect of reducing the number or competing ions on transport efficiency of DEX. […] Other conditions are varied including, for example, eliminating the pH change from the lower concentrations of sodium citrate solutions and using various non-charged excipients to modulate the donor solution osmolarity.

Setting [11] is: single iontophoretic dose on Day 2.
Where [12] appears, read: aqueous humor, single dose 40 mg/mL Dex P.
[13] abbreviates: aqueous humor, single dose 60 mg/mL Dex P.
The mark [14] stands for this setting: choroid, single dose 40 mg/mL Dex P.
Where [15] appears, read: choroid, single dose 60 mg/mL Dex P.
Where [16] appears, read: plasma, single dose 40 mg/mL Dex P.
[17] abbreviates: plasma, single dose 60 mg/mL Dex P.
The mark [18] stands for this setting: vitreous, single dose 40 mg/mL Dex P.
[19] abbreviates: vitreous, single dose 60 mg/mL Dex P.

Where two headings read alike, the source gives them in different places.

As for `C[C@@H]1C[C@H]2[C@@H]3CCC4=CC(=O)C=C[C@]4(C)[C@@]3(F)[C@@H](O)C[C@]2(C)[C@@]1(O)C(=O)COP(=O)([O-])[O-].[Na+].[Na+]` [DEX disodium phosphate, dexamethasone disodium phosphate], the “plasma levels at two hours post dose” value in data set [1] is < 4000 ng/mL.

For `C[C@@H]1C[C@H]2[C@@H]3CCC4=CC(=O)C=C[C@]4(C)[C@@]3(F)[C@@H](O)C[C@]2(C)[C@@]1(O)C(=O)COP(=O)(O)O` [DEX phosphate, dexamethasone phosphate], the “ocular surface damage (fluorescein staining) compared to control groups” value in data set [2] is recorded as “decreases the amount of ocular surface damage”. In data set [2], the “tear flow (Schirmer strips) compared to control groups” value is reported as “increases tear flow”. Besides, the “TGF-β1 expression in the cornea” value in data set [3] is recorded as “No significant difference”. Moreover, in data set [3] (setting [11]), the “TGF-β1 expression in the lacrimal glands compared to saline treatment and control groups” value is on record as “Reduced”. Also, the “material fluxed across the membrane (with current)” value (40 mg/mL aqueous solution pH 5.7, cathodic iontophoresis) is reported as “up to 5%”. Under “40 mg/mL aqueous solution pH 5.7, up to 120 minutes”, the “passive transfer across the membrane (without current)” value is “little or no”. For the same compound, the “dexamethasone in the residual donor solution, share of total area under the curve (HPLC, UV)” value (donor chamber after iontophoresis) was < 5%. In addition, where the note is “for up to 120 minutes”, the “impurities in the donor or receiving chambers under iontophoresis” value is “no significant impurities were detectable”. For the same compound, the “share of the total DEX phosphate initially in the donor chamber found in the receptor chamber” value (receptor chamber) was < 5%. Moreover, where the note is “receptor chamber solution”, the “dexamethasone in the receptor chamber solution, share of total area under the curve (HPLC, UV)” value was < 5%. The “share of the receptor chamber material that was dexamethasone phosphate” value (receptor chamber solution) is given as 95%. In addition, the “Dex AUC0-6h” value in data set [4] (setting [12]) is reported as 56.5 μg · h/g or μg · h/mL; in data set [4] (setting [13]), 123 μg· h/g or μg · h/mL; in data set [4] (setting [14]) it was 24.9 μg · h/g or μg · h/mL; in data set [4] (setting [15]), 49.5 μg· h/g or μg · h/mL; in data set [4] (setting [16]) it was 1.6 μg · h/g or μg · h/mL; in data set [4] (setting [17]), 3.7 μg· h/g or μg · h/mL. Also, the “Dex AUC0-6h” value is reported as 1.5 μg · h/g or μg · h/mL in data set [4] (setting [18]) and 2.3 μg· h/g or μg · h/mL in data set [4] (setting [19]). The “Dex AUC0-24h” value in data set [4] (setting [12]) is reported as 73.8 μg · h/g or μg · h/mL; in data set [4] (setting [13]), 132 μg· h/g or μg · h/mL; in [4] (setting [14]) it was 35.9 μg · h/g or μg · h/mL; in data set [4] (setting [15]) it was 66.7 μg· h/g or μg · h/mL; in data set [4] (setting [16]) it was 3.3 μg · h/g or μg · h/mL; in [4] (setting [17]), 6.6 μg· h/g or μg · h/mL. In addition, the entries for the “Dex AUC0-24h” value in data set [4] (setting [18]) and in data set [4] (setting [19]) were 2.2 μg · h/g or μg · h/mL and 3.0 μg· h/g or μg · h/mL, respectively. In addition, the figures for the “clearance of dexamethasone and DEX phosphate from plasma and ocular tissues” value in data set [4] and in data set [4] (listed as DEX-P) were “nearly completely cleared” and “NEARLY COMPLETELY”, respectively. Further, the “pKa (first of the two pKa's)” value in data set [5] is on record as 1.9. In addition, in [5], the “pKa (second of the two pKa's)” value is given as 6.4. In [6], the “flux across the sclera versus applied current” value is “directly proportional to the applied current”. The “electrotransport data with sheep sclera compared with rabbit sclera” value in data set [7] is “indistinguishable from those obtained using the corresponding rabbit membranes”. In addition, the “IL-1β expression in the cornea” value in data set [8] is recorded as “No significant difference”. Further, the “IL-1β expression in the lacrimal glands compared to saline treatment and control groups” value in data set [8] (setting [11]) is listed as “Reduced”.

`C[C@@H]1C[C@H]2[C@@H]3CCC4=CC(=O)C=C[C@]4(C)[C@@]3(F)[C@@H](O)C[C@]2(C)[C@@]1(O)C(=O)CO` [dexamethasone, 9-fluoro-11β,17,21-trihydroxy-16α-methylpregna-1,4-diene-3,20-dione]: in data set [9], the “anti-inflammatory activity relative to prednisone or prednisolone” value is recorded as “six to ten times greater” and the “anti-inflammatory potency relative to cortisone” value is recorded as 30 to 40 times. For the same compound, the “DEX flux on decreasing the amount of sodium citrate” value in data set [10] (four different concentrations of sodium citrate buffer) is given as “increased DEX flux”. Moreover, the “amount transferred to receptor” value in [10] (±3 mA, 10 mg/mL solution in 100 mM sodium citrate at pH ~5.66, cathodic delivery) is “Approximately 1%”.
